From ChEMBL document CHEMBL4507268 (2021)

Legend:
Details in all cases: Compound concentration 1000.0 nM
[1] = biological target: Cyclin-dependent kinase 11B (Homo sapiens) (UniProt P21127)
[2] = biological target: T1, Ephrin type-A receptor 1 (Homo sapiens) (UniProt P21709)
T1 sequence (whole entry): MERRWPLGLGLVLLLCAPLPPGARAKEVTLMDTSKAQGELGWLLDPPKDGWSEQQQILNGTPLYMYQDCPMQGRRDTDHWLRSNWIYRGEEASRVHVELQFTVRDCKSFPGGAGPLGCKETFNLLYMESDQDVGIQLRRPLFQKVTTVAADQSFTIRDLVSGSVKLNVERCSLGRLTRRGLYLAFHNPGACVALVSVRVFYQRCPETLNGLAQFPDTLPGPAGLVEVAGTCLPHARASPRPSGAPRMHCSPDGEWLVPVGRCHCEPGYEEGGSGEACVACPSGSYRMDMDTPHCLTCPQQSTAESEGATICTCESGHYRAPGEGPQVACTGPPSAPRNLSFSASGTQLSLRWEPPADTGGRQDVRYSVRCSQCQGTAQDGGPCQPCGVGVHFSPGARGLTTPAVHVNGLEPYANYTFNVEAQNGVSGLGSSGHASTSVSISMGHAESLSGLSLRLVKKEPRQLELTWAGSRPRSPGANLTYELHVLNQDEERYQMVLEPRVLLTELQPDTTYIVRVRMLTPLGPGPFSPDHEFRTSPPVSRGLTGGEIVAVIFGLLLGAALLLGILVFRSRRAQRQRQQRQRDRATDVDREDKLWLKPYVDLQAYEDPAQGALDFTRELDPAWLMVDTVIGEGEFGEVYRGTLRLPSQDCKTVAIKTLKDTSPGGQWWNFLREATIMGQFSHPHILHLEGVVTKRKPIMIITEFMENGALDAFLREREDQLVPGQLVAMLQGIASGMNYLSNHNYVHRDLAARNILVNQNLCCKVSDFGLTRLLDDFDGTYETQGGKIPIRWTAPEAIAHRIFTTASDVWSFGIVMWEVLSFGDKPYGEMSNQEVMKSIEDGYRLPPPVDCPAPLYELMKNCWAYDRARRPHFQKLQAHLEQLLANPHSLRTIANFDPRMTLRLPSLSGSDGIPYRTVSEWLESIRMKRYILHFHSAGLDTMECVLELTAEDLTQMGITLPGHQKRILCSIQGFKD

[3] = biological target: Tyrosine-protein kinase Fer (Homo sapiens) (UniProt P16591)
Sequence of Tyrosine-protein kinase Fer (Homo sapiens) (P16591 whole entry, looked up): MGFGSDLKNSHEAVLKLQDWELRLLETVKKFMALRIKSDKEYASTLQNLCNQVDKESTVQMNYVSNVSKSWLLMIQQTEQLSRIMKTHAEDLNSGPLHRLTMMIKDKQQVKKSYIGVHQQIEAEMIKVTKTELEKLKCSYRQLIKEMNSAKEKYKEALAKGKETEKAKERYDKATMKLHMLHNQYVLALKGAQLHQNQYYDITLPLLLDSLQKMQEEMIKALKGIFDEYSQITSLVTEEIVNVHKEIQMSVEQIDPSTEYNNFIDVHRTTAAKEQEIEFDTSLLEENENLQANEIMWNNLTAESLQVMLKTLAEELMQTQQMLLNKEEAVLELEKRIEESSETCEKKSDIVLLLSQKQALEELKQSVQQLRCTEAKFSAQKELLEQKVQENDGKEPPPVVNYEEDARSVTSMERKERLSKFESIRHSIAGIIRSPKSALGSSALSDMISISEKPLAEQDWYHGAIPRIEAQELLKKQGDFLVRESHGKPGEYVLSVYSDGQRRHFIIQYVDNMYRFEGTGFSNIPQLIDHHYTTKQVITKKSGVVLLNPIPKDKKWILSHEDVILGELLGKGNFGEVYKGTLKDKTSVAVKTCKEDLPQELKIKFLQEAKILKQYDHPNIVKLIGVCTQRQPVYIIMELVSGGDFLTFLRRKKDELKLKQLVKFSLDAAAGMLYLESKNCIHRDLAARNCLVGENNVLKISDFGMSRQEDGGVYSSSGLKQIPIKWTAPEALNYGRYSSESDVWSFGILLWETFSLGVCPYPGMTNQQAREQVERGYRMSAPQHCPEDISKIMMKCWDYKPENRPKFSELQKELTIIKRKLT

[4] = biological target: Tyrosine-protein kinase Fes/Fps (Homo sapiens) (UniProt P07332)
Sequence of Tyrosine-protein kinase Fes/Fps (Homo sapiens) (P07332 whole entry): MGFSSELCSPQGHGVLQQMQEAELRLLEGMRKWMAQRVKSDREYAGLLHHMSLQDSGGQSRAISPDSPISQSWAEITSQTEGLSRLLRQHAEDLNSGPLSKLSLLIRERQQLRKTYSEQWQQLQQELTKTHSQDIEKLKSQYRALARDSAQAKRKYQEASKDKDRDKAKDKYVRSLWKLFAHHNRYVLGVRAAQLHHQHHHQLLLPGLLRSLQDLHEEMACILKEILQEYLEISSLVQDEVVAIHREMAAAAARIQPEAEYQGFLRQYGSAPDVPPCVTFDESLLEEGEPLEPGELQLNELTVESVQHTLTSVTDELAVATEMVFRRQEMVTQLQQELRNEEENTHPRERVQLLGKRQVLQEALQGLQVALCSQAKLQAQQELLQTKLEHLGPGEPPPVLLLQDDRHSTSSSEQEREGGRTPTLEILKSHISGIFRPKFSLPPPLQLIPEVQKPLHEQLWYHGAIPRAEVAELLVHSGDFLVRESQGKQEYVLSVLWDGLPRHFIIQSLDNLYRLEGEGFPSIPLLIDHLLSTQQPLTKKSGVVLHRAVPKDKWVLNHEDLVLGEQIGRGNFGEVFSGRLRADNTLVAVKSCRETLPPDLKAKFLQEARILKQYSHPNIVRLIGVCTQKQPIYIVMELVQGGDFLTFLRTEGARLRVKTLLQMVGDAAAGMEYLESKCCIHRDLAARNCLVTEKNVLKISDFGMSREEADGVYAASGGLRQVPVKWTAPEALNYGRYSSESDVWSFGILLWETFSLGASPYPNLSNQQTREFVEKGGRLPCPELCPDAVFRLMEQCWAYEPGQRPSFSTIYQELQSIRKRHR

[5] = biological target: Tyrosine-protein kinase JAK1 (Homo sapiens) (UniProt P23458)
Sequence of Tyrosine-protein kinase JAK1 (Homo sapiens) (P23458 whole entry): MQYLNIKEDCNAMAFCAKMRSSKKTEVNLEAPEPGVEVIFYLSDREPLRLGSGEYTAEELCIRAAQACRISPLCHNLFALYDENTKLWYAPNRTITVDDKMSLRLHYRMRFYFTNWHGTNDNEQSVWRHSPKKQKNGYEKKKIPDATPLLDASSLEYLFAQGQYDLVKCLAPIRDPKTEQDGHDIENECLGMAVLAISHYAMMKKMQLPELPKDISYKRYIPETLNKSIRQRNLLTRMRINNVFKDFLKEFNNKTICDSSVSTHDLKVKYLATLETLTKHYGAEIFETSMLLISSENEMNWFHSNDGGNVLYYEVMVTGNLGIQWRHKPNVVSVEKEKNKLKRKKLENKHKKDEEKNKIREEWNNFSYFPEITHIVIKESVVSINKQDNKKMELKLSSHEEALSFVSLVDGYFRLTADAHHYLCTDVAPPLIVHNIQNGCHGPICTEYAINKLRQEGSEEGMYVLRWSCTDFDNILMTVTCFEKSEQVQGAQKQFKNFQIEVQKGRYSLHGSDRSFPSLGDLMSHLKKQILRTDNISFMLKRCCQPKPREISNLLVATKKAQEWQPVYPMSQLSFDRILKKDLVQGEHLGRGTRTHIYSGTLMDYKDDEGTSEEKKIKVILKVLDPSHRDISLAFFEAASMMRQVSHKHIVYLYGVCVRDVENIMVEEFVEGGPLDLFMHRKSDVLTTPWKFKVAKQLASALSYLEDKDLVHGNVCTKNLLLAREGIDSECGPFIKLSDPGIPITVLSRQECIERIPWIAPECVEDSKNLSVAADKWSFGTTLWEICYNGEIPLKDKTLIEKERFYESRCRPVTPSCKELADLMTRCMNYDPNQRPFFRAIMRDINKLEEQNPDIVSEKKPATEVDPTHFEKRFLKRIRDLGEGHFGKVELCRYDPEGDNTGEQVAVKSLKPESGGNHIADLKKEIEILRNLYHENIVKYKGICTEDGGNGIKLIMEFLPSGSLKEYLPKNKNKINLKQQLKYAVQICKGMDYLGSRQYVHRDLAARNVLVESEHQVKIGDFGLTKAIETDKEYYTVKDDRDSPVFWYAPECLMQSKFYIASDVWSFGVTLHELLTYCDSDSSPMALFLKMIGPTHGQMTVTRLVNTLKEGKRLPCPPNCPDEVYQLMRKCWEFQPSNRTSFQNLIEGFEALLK

[6] = biological target: RAF proto-oncogene serine/threonine-protein kinase (Homo sapiens) (UniProt P04049)
Sequence of RAF proto-oncogene serine/threonine-protein kinase (Homo sapiens) (P04049 whole entry): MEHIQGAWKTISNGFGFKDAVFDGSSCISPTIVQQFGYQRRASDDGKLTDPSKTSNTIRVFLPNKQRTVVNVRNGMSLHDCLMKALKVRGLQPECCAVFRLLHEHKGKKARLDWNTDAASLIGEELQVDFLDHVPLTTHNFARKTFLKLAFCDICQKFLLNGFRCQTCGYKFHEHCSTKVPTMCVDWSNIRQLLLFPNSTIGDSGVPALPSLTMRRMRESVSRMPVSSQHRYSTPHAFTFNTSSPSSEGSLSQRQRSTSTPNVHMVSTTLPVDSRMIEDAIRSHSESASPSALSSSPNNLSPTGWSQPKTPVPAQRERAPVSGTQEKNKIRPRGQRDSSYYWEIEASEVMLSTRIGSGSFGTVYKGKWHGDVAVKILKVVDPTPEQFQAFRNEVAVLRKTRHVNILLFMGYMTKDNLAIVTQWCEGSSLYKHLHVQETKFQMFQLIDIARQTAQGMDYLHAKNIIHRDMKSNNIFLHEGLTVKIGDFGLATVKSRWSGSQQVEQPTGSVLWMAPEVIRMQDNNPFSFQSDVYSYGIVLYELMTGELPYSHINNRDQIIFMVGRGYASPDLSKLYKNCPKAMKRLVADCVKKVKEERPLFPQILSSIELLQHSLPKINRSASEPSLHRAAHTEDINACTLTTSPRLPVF

[7] = biological target: T2, Serine/threonine-protein kinase TBK1 (Homo sapiens) (UniProt Q9UHD2)
T2 sequence (whole entry): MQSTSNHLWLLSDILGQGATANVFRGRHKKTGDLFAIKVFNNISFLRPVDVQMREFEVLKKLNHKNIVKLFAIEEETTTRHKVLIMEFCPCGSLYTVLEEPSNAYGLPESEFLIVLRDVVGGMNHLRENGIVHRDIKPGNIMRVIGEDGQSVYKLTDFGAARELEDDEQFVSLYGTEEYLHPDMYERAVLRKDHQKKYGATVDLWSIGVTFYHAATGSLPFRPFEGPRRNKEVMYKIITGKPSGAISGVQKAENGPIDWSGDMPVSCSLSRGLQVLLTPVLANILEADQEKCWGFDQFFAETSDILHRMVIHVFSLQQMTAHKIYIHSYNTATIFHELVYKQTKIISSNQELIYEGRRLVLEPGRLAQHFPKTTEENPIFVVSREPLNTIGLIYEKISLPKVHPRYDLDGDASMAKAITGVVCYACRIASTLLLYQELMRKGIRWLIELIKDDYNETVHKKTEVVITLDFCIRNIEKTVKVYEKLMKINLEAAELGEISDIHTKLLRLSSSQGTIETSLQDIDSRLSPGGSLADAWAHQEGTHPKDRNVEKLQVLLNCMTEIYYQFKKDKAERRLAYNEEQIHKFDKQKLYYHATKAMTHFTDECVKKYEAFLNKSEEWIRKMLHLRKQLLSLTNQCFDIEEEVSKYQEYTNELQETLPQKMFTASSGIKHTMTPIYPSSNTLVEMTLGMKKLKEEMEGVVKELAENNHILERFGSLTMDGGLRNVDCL

[8] = biological target: T3, Tyrosine-protein kinase receptor TYRO3 (Homo sapiens) (UniProt Q06418)
T3 sequence (whole entry): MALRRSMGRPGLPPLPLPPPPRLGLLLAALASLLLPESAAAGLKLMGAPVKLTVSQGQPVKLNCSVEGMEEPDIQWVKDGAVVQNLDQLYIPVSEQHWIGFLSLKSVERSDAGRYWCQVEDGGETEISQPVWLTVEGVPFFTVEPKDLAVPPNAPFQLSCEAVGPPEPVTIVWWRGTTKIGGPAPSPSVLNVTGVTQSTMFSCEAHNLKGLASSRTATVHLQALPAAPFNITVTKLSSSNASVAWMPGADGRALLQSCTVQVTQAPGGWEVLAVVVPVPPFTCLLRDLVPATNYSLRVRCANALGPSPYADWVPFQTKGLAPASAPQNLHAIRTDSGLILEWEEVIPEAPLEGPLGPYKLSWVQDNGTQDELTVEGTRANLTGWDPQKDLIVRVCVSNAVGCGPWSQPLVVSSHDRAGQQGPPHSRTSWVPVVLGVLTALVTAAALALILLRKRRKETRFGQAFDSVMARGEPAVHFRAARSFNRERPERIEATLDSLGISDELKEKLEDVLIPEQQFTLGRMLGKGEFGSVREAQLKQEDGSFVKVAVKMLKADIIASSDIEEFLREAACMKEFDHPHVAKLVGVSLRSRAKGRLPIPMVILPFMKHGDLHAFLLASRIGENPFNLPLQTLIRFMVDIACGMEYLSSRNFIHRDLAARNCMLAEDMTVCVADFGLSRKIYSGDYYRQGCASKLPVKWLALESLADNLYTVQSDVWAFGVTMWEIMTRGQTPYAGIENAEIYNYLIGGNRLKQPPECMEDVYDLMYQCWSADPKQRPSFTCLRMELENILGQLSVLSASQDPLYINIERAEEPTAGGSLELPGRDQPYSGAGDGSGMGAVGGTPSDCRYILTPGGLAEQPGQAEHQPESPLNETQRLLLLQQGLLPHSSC

Measured: residual activity

Sequence of Cyclin-dependent kinase 11B (Homo sapiens) (P21127 whole entry): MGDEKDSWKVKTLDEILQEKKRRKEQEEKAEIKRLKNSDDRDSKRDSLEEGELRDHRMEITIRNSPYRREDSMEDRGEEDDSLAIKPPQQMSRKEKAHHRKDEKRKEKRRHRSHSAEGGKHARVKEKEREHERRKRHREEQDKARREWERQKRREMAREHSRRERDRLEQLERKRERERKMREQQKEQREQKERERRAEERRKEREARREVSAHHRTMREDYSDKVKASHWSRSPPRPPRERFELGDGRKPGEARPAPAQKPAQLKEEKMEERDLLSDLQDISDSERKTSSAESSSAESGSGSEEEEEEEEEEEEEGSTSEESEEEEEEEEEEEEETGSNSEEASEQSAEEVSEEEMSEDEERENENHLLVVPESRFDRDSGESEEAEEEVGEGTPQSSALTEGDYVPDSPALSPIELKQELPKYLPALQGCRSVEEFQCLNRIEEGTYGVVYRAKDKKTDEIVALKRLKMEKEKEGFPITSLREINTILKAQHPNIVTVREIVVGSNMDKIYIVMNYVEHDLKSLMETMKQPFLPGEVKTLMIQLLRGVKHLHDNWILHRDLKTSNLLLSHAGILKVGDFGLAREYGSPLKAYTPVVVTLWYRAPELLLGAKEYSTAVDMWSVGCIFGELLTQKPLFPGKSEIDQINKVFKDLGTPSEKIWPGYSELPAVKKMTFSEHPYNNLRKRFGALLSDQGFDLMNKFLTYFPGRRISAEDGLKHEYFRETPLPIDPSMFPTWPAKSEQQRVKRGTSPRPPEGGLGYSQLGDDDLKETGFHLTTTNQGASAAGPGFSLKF

Cc1nc(C2CCN(C(=O)c3ccc(OC(F)(F)F)cc3N)CC2)c2ncc(N3CCN(C)CC3)cc2n1 [BAY-693]
inactive: [1] 87% | [2] 100% | [3] 99% | [4] 96% | [5] 90% | [6] 77% | [7] 100% | [8] 100%

CN1CCN(c2cnc3c(C4CCN(C(=O)c5ccc(OC(F)(F)F)cc5N)CC4)ncnc3c2)CC1 [BAY-885]
inactive: [1] 82% | [2] 95% | [3] 100% | [4] 100% | [5] 90% | [6] 75% | [7] 61% | [8] 100%
